The subject of one assay is SKBR3 and BT474 cells. The assay can be described thus: erbB3 overexpression or erbB3/erbB2 shRNA knockdown and SNDX-275 response. In kind it is cell-based, human. From the text: (§1) SNDX-275 had little effect on apoptosis induction and cell cycle progression in basal breast cancer MDA-MB-468, MDA-MB-231, and BT20 cells. […] Moreover, elevated expression of erbB3 via transfection with erbB3-containing expression vector abrogated SNDX-275-induced inactivation of the downstream signaling, apoptosis, and cell cycle arrest, whereas knockdown of erbB3 and/or erbB2 expression with specific shRNAs enhanced the efficacy of SNDX-275-induced inactivation of the downstream signaling, apoptosis, and cell cycle arrest in SKBR3 and BT474 cells.

For assay [1], the system named is human breast cancer cells. The settings on record: through induction of TGFβ type II receptor or TRAIL expression, or degradation of DNMT1; cited from earlier work.
The test system of assay [2] is erbB2-overexpressing breast cancer cells. The assay can be described thus: cell proliferation (MTS) assays, erbB2-overexpressing vs basal breast cancer cells. The format is cell-based, human. The settings on record: MTS assay; erbB2-overexpressing breast cancer cells compared to basal cells.
Text: as §1
In general terms: Formazan colour is commonly taken as a measure of viable cells.

For assay [3], the system named is P-erbB3, P-erbB2, P-MAPK, P-Akt, erbB3 and erbB2 in SKBR3, BT474 and MDA-MB-453 cells. Nature of the assay: erbB receptor and downstream signaling levels upon SNDX-275 treatment. The format is cell-based, human.
Text: as §1

Assay [4] relates to basal breast cancer MDA-MB-468, MDA-MB-231, and BT20 cells. Nature of the assay: apoptosis induction and cell cycle progression in basal breast cancer cells. Particulars: MDA-MB-468, MDA-MB-231, BT20 cells. The format is cell-based, human.
Text: as §1

The subject of assay [5] is erbB2-overexpressing SKBR3, BT474, and MDA-MB-453 cells. Nature of the assay: Apoptotic-ELISA, western blots on PARP cleavage and caspase-3, -8, -9 activation, flow cytometry in erbB2-overexpressing cells. The settings on record: SNDX-275 5 μM; SKBR3, BT474, MDA-MB-453 cells. In kind it is cell-based, human.
Text: as §1
In general terms: In an ELISA, binding on a coated surface is turned into a signal by an enzyme label.

Consider `Nc1ccccc1NC(=O)c1ccc(CNC(=O)OCc2cccnc2)cc1` [SNDX-275, N-(2-aminophenyl)-4-(N-(pyridin-3-ylmethoxycarbonyl)aminomethyl)benzamide], for which the “efficacy of SNDX-275-induced inactivation of downstream signaling, apoptosis, and cell cycle arrest with erbB3 and/or erbB2 knockdown” value in the assay on SKBR3 and BT474 cells (specific shRNAs, SKBR3 and BT474 cells) is “enhanced”. Further, the “SNDX-275-induced inactivation of downstream signaling, apoptosis, and cell cycle arrest with elevated erbB3 expression” value in the assay on SKBR3 and BT474 cells (transfection with erbB3-containing expression vector) was “abrogated”. For the same molecule, in assay [1], the proliferation and apoptosis result is “inhibit proliferation and induce apoptosis”. The growth inhibition entry in assay [2] was “much stronger growth inhibition”. For the same molecule, in assay [3], the erbB2 receptor entry is given as “lesser reduction”; the erbB3 protein result is on record as “rapid decrease”; the “levels of P-erbB3, P-erbB2, P-MAPK, and P-Akt” value was “significantly decreased”. Besides, the “apoptosis induction and cell cycle progression” value in assay [4] is reported as “little effect”. Also, the “apoptosis and cell cycle arrest” value in assay [5] was “induced apoptosis and cell cycle G1 arrest”.

These data come from US20110182888A1, “Administration of an Inhibitor of HDAC, an Inhibitor of HER-2, and a Selective Estrogen Receptor Modulator” (priority 2008, published 2011).
